Source: the supplement of paper PMC10307832

What was measured:
Assay in all cases: relative viability (nuclei count vs DMSO), 5 days (fraction); higher = more cells survive
NCI-H441 = system: NCI-H441
Outline: (§1)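 Relative viability equals treated-well nuclei counts divided by vehicle-well nuclei counts. Counts came from 4× images of lung cancer cell lines grown in 1536-well plates for 5 days after pin-tool dosing on the day after seeding. Dosing used one drug alone or a fixed anchor-drug dose plus five library-drug doses (not always all listed) in √10 steps, and values are medians of duplicate plates.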

NCI-H1437 = system: NCI-H1437
Outline: as §1

LOU-NH91 = system: LOU-NH91
Outline: as §1

SW 900 = system: SW 900
Outline: as §1

CAL-12T = system: CAL-12T
Outline: as §1

NCI-H3122 = system: NCI-H3122
Outline: as §1

NCI-H460 = system: NCI-H460
Outline: as §1

NCI-H1666 = system: NCI-H1666
Outline: as §1

LK-2 = system: LK-2
Outline: as §1

BEN = system: BEN
Outline: as §1

ABC-1 = system: ABC-1
Outline: as §1

EKVX = system: EKVX
Outline: as §1

NCI-H727 = system: NCI-H727
Outline: as §1

PC-14 = system: PC-14
Outline: as §1

NCI-H2170 = system: NCI-H2170
Outline: as §1

201T = system: 201T
Outline: as §1

HARA = system: HARA
Outline: as §1

HCC-366 = system: HCC-366
Outline: as §1

## O=c1cc(N2CCOCC2)oc2c(-c3cccc4c3sc3ccccc34)cccc12 + NC(=O)Nc1cc(-c2cccc(F)c2)sc1C(=O)N[C@H]1CCCNC1 [AZD7762] (partner 0.2 µM)
NCI-H441; first compound 0.01 µM
  relative viability: 1.06
NCI-H441; first compound 0.03162 µM
  relative viability: 1.03
NCI-H441; first compound 0.1 µM
  relative viability: 1.09
NCI-H441; first compound 0.3162 µM
  relative viability: 1.2
NCI-H441; first compound 1 µM
  relative viability: 1.01
NCI-H1437; first compound 0.01 µM
  relative viability: 1.22
NCI-H1437; first compound 0.03162 µM
  relative viability: 1.12
NCI-H1437; first compound 0.1 µM
  relative viability: 1.12
NCI-H1437; first compound 0.3162 µM
  relative viability: 1.1
NCI-H1437; first compound 1 µM
  relative viability: 1.04
LOU-NH91; first compound 0.01 µM
  relative viability: 0.755
LOU-NH91; first compound 0.03162 µM
  relative viability: 0.785
LOU-NH91; first compound 0.1 µM
  relative viability: 0.803
LOU-NH91; first compound 0.3162 µM
  relative viability: 0.78
LOU-NH91; first compound 1 µM
  relative viability: 0.751
SW 900; first compound 0.03162 µM
  relative viability: 0.748
SW 900; first compound 0.1 µM
  relative viability: 0.378
SW 900; first compound 0.3162 µM
  relative viability: 0.702
SW 900; first compound 1 µM
  relative viability: 0.497
CAL-12T; first compound 0.01 µM
  relative viability: 0.58
CAL-12T; first compound 0.03162 µM
  relative viability: 0.541
CAL-12T; first compound 0.1 µM
  relative viability: 0.852
CAL-12T; first compound 0.3162 µM
  relative viability: 0.676
CAL-12T; first compound 1 µM
  relative viability: 0.498
NCI-H3122; first compound 0.01 µM
  relative viability: 1.01
NCI-H3122; first compound 0.03162 µM
  relative viability: 0.976
NCI-H3122; first compound 0.1 µM
  relative viability: 0.731
NCI-H3122; first compound 0.3162 µM
  relative viability: 0.99
NCI-H3122; first compound 1 µM
  relative viability: 0.973
NCI-H460; first compound 0.01 µM
  relative viability: 0.518
NCI-H460; first compound 0.03162 µM
  relative viability: 0.622
NCI-H460; first compound 0.1 µM
  relative viability: 0.451
NCI-H460; first compound 0.3162 µM
  relative viability: 0.589
NCI-H460; first compound 1 µM
  relative viability: 0.636
NCI-H1666; first compound 0.01 µM
  relative viability: 0.842
NCI-H1666; first compound 0.03162 µM
  relative viability: 0.886
NCI-H1666; first compound 0.1 µM
  relative viability: 0.797
NCI-H1666; first compound 0.3162 µM
  relative viability: 0.675
NCI-H1666; first compound 1 µM
  relative viability: 0.7
LK-2; first compound 0.01 µM
  relative viability: 0.468
LK-2; first compound 0.03162 µM
  relative viability: 0.369
LK-2; first compound 0.1 µM
  relative viability: 0.262
LK-2; first compound 0.3162 µM
  relative viability: 0.369
LK-2; first compound 1 µM
  relative viability: 0.354
BEN; first compound 0.01 µM
  relative viability: 0.576
BEN; first compound 0.03162 µM
  relative viability: 0.86
BEN; first compound 0.1 µM
  relative viability: 0.289
BEN; first compound 0.3162 µM
  relative viability: 0.735
BEN; first compound 1 µM
  relative viability: 0.626
ABC-1; first compound 0.01 µM
  relative viability: 0.819
ABC-1; first compound 0.03162 µM
  relative viability: 0.774
ABC-1; first compound 0.1 µM
  relative viability: 0.695
ABC-1; first compound 0.3162 µM
  relative viability: 0.694
ABC-1; first compound 1 µM
  relative viability: 0.848
EKVX; first compound 0.01 µM
  relative viability: 0.654
EKVX; first compound 0.03162 µM
  relative viability: 0.757
EKVX; first compound 0.1 µM
  relative viability: 0.445
EKVX; first compound 0.3162 µM
  relative viability: 0.878
EKVX; first compound 1 µM
  relative viability: 0.695
NCI-H727; first compound 0.01 µM
  relative viability: 0.583
NCI-H727; first compound 0.03162 µM
  relative viability: 0.486
NCI-H727; first compound 0.1 µM
  relative viability: 0.423
NCI-H727; first compound 0.3162 µM
  relative viability: 0.596
NCI-H727; first compound 1 µM
  relative viability: 0.575
PC-14; first compound 0.01 µM
  relative viability: 0.306
PC-14; first compound 0.03162 µM
  relative viability: 0.322
PC-14; first compound 0.1 µM
  relative viability: 0.116
PC-14; first compound 0.3162 µM
  relative viability: 0.516
PC-14; first compound 1 µM
  relative viability: 0.27
NCI-H2170; first compound 0.01 µM
  relative viability: 0.78
NCI-H2170; first compound 0.03162 µM
  relative viability: 0.945
NCI-H2170; first compound 0.1 µM
  relative viability: 0.734
NCI-H2170; first compound 0.3162 µM
  relative viability: 0.842
NCI-H2170; first compound 1 µM
  relative viability: 0.852
201T; first compound 0.01 µM
  relative viability: 0.624
201T; first compound 0.03162 µM
  relative viability: 0.619
201T; first compound 0.1 µM
  relative viability: 0.615
201T; first compound 0.3162 µM
  relative viability: 0.585
201T; first compound 1 µM
  relative viability: 0.583
HARA; first compound 0.01 µM
  relative viability: 0.501
HARA; first compound 0.03162 µM
  relative viability: 0.303
HARA; first compound 0.1 µM
  relative viability: 0.302
HARA; first compound 0.3162 µM
  relative viability: 0.343
HARA; first compound 1 µM
  relative viability: 0.357
HCC-366; first compound 0.01 µM
  relative viability: 0.247
HCC-366; first compound 0.03162 µM
  relative viability: 0.286
HCC-366; first compound 0.1 µM
  relative viability: 0.127
HCC-366; first compound 0.3162 µM
  relative viability: 0.287
HCC-366; first compound 1 µM
  relative viability: 0.288
